Our source for the EC50 values is patent US8785488B2 (Exelixis Patent Company LLC, priority 2009, dated 2014).

pEC50: −log10 of the molar value. Where two headings read alike, the source gives them in different places.

One experiment deals with T1, human TGR5 (h-TGR5) (Homo sapiens, UniProt Q8TDU6).
T1 construct: expressed in transfected cells
T1 sequence (Q8TDU6 1-330): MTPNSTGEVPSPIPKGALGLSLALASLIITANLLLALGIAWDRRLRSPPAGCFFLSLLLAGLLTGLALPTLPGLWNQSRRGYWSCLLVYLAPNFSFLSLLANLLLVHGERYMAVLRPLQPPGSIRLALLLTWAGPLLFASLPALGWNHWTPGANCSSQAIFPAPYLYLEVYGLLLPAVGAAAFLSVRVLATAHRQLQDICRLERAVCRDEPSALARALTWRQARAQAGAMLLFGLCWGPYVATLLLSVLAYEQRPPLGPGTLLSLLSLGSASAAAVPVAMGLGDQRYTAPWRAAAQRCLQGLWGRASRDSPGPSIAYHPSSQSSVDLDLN
In words: TGR5/CRE-Luciferiase Assay (HEK 293 hTGR5/CRE-Luc cells). It is filed as cell-based. In outline:
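HEK293 cells stably carrying hTGR5 and a CRE-luciferase reporter were exposed to serially diluted compounds (diluted in DMEM with 5% DMSO) for 6 h. Cells were then lysed in luciferase buffer, luminescence was read, and EC50 values were derived from dose-response curves.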

A further experiment concerns the target T2, h-TGR5 (Homo sapiens, UniProt Q8TDU6).
T2 construct: expressed in transfected cells
T2 sequence (Q8TDU6 1-330): T1 sequence (Q8TDU6 1-330)
In words: TGR5 cAMP Assay using Cisbio cAMP Dynamic2 htrf kit (hTGR5CRE-luc HEK 293 cells). It is filed as cell-based. In outline: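 […], 4000 hTGR5CRE-luc HEK 293 cells per well, with 0.5 mM IBMX and d2-cAMP, were incubated 30 min at room temperature with compounds in 8-point half-log series, in quadruplicate.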

The mark [1] stands for this setting: h-TGR5 CRE-Luc EC50, Table 1, read-out: CRE-Luc (EC50).
The mark [2] stands for this setting: h-TGR5 cAMP EC50, Table 1, read-out: cAMP (EC50).

On to `COc1cc(C(C)(C)c2cnc(SCc3ccc(S(=O)(=O)NC(=O)NN4CCCC4)cc3Cl)n2-c2ccc(F)c(Cl)c2)ccc1Cl` [3-chloro-4-({[1-(3-chloro-4-fluorophenyl)-5-{1-[4-chloro-3-(methyloxy)phenyl]-1-methylethyl}-1H-imidazol-2-yl]thio}methyl)-N-[(pyrrolidine-1-ylamino)carbonyl]benzenesulfonamide], for which the negative-log EC50 (pEC50) was over 7.00 at human TGR5 (h-TGR5) (setting [1]) and 6.00 to 7.00 on h-TGR5 (setting [2]).
As for `COc1ccc(C(C)(C)c2cnc(SCc3ccc(S(=O)(=O)NC(=O)NN4CCCC4)cc3Cl)n2-c2ccc(F)c(C)c2)cc1Cl` [3-chloro-4-({[5-{1-[3-chloro-4-(methyloxy)phenyl]-1-methylethyl}-1-(4-fluoro-3-methylphenyl)-1H-imidazol-2-yl]thio}methyl)-N-[(pyrrolidin-1-ylamino)carbonyl]benzenesulfonamide], the pEC50 on human TGR5 (h-TGR5) (setting [1]) and on h-TGR5 (setting [2]) was 6.00 to 7.00 in each case.
On to `CC(C)(c1ccc(S(N)(=O)=O)c(Cl)c1)c1cnc(SCc2ccc(S(=O)(=O)NC(=O)NN3CCOCC3)cc2Cl)n1-c1ccc(F)c(Cl)c1` [4-({[5-{1-[4-(aminosulfonyl)-3-chlorophenyl]-1-methylethyl}-1-(3-chloro-4-fluorophenyl)-1H-imidazol-2-yl]thio}methyl)-3-chloro-N-[(morpholin-4-ylamino)carbonyl]benzenesulfonamide], for which the pEC50 at human TGR5 (h-TGR5) (setting [1]) and at h-TGR5 (setting [2]) was 6.00 to 7.00 in each case.
In the case of `COc1cc(C(C)(C)c2cnc(SCc3ccc(S(=O)(=O)NC(=O)NN4CCCC4)cc3Cl)n2-c2ccc(F)c(F)c2)ccc1Cl` [3-chloro-4-({[5-{1-[4-chloro-3-(methyloxy)phenyl]-1-methylethyl}-1-(3,4-difluorophenyl)-1H-imidazol-2-yl]thio}methyl)-N-[(pyrrolidin-1-ylamino)carbonyl]benzenesulfonamide], the pEC50 at human TGR5 (h-TGR5) (setting [1]) and on h-TGR5 (setting [2]) was 6.00 to 7.00 throughout.
`COc1cc(C(C)(C)c2cnc(SCc3c(F)cc(OCCNC(=N)N)cc3Cl)n2-c2ccc(F)cc2)ccc1Cl` [1-(2-{[3-chloro-4-({[5-{1-[4-chloro-3-(methyloxy)phenyl]-1-methylethyl}-1-(4-fluorophenyl)-1H-imidazol-2-yl]thio}methyl)-5-fluorophenyl]oxy}ethyl)guanidine]: the negative-log EC50 (pEC50) at human TGR5 (h-TGR5) (setting [1]) and on h-TGR5 (setting [2]) was over 7.00 throughout.
Turning to `COc1ccc(C(C)(C)c2cnc(SCc3c(F)cccc3C(F)(F)F)n2-c2ccc(F)cc2)cc1OC` [5-{1-[3,4-bis(methyloxy)phenyl]-1-methylethyl}-1-(4-fluorophenyl)-2-({[2-fluoro-6-(trifluoromethyl)phenyl]methyl}thio)-1H-imidazole], the pEC50 at human TGR5 (h-TGR5) (setting [1]) and on h-TGR5 (setting [2]) was over 7.00 each time.
For `CC(C)(c1ccc(Cl)c(Cl)c1)c1cnc(SCc2ccc(F)cc2Cl)n1-c1cccnc1` [3-(2-{[(2-chloro-4-fluorophenyl)methyl]thio}-5-[1-(3,4-dichlorophenyl)-1-methylethyl]-1H-imidazol-1-yl)pyridine], the pEC50 on human TGR5 (h-TGR5) (setting [1]) is 6.00 to 7.00; on h-TGR5 (setting [2]), 5.00 to 6.00.
Turning to `CC(C)(c1ccc(Cl)c(Cl)c1)c1cnc(SCc2ccc(F)c(S(N)(=O)=O)c2)n1-c1ccc(F)cc1` [5-[({5-[1-(3,4-dichlorophenyl)-1-methylethyl]-1-(4-fluorophenyl)-1H-imidazol-2-yl}thio)methyl]-2-fluorobenzenesulfonamide], the pEC50 was over 7.00 on human TGR5 (h-TGR5) (setting [1]) and 6.00 to 7.00 at h-TGR5 (setting [2]).
In the case of `CC(C)(c1ccc(Cl)c(OCCCN2CCOCC2)c1)c1cnc(SCc2c(F)cc(C(=O)O)cc2Cl)n1-c1ccc(F)cc1` [3-chloro-4-({[5-(1-{4-chloro-3-[(3-morpholin-4-ylpropyl)oxy]phenyl}-1-methylethyl)-1-(4-fluorophenyl)-1H-imidazol-2-yl]thio}methyl)-5-fluorobenzoic acid], the pEC50 on human TGR5 (h-TGR5) (setting [1]) and on h-TGR5 (setting [2]) was 6.00 to 7.00 throughout.
For `CC(C)(c1ccc2cccnc2c1)c1nnc(SCc2c(F)cccc2Cl)n1-c1ccc(F)cc1` [Example 47], the negative-log EC50 (pEC50) at human TGR5 (h-TGR5) (HEK 293 hTGR5/CRE-Luc cells, 6 hours incubation, luciferase activity, Table 2, read-out: h-TGR5CRE-Luc EC50 (CRE-Luc)) was over 7.00; at h-TGR5 (hTGR5CRE-luc HEK 293 cells, htrf cAMP, Table 2, read-out: h-TGR5 cAMP EC50 (cAMP)), over 7.00.
For the molecule `CC(C)(c1ccc(Cl)c(Cl)c1)c1cnc(SCc2ccc(C(=O)NCCS(=O)(=O)O)cc2F)n1-c1ccc(F)cc1` [2-[({4-[({5-[1-(3,4-dichlorophenyl)-1-methylethyl]-1-(4-fluorophenyl)-1H-imidazol-2-yl}thio)methyl]-3-fluorophenyl}carbonyl)amino]ethanesulfonic acid-sodium (1:1)], the negative logarithm of the EC50 (pEC50) is 6.00 to 7.00 on human TGR5 (h-TGR5) (setting [1]) and over 7.00 on h-TGR5 (setting [2]).
The like results for `CC(C)(c1ccc(Cl)c(Cl)c1)c1cnc(SCc2ccc(F)c(S(C)(=O)=O)c2)n1-c1ccc(F)cc1` [5-[1-(3,4-dichlorophenyl)-1-methylethyl]-2-({[4-fluoro-3-(methylsulfonyl)phenyl]methyl}thio)-1-(4-fluorophenyl)-1H-imidazole] were, in that order, over 7.00 and 6.00 to 7.00.
With `CC(C)(c1ccc(Cl)c(Cl)c1)c1cnc(SCc2ccc(C(=O)O)cc2Cl)n1-c1ccc(F)cc1` [3-chloro-4-[({5-[1-(3,4-dichlorophenyl)-1-methylethyl]-1-(4-fluorophenyl)-1H-imidazol-2-yl}thio)methyl]benzoic acid], the negative logarithm of the EC50 (pEC50) at human TGR5 (h-TGR5) (setting [1]) and on h-TGR5 (setting [2]) was 6.00 to 7.00 each time.
Take `CC(C)(c1ccc(Cl)c(Cl)c1)c1cnc(SCC2CCN(c3nnn[nH]3)CC2)n1-c1ccc(F)cc1` [4-[({5-[1-(3,4-dichlorophenyl)-1-methylethyl]-1-(4-fluorophenyl)-1H-imidazol-2-yl}thio)methyl]-1-(1H-tetrazol-5-yl)piperidine]: the pEC50 at human TGR5 (h-TGR5) (setting [1]) is over 7.00; on h-TGR5 (setting [2]), 6.00 to 7.00.
As for `CC(C)(c1ccc(Cl)c(Cl)c1)c1cnc(CCc2c(F)cccc2Cl)n1-c1ccc(F)cc1` [2-[2-(2-chloro-6-fluorophenyl)ethyl]-5-[1-(3,4-dichlorophenyl)-1-methylethyl]-1-(4-fluorophenyl)-1H-imidazole], the pEC50 at human TGR5 (h-TGR5) (setting [1]) and at h-TGR5 (setting [2]) was 6.00 to 7.00 throughout.
As for `CCOC(=O)NS(=O)(=O)c1ccc(CSc2ncc(C(C)(C)c3ccc(Cl)c(OC)c3)n2-c2ccc(F)cc2)cc1F` [ethyl {[4-({[5-{1-[4-chloro-3-(methyloxy)phenyl]-1-methylethyl}-1-(4-fluorophenyl)-1H-imidazol-2-yl]thio}methyl)-2-fluorophenyl]sulfonyl}carbamate], the negative-log EC50 (pEC50) at human TGR5 (h-TGR5) (setting [1]) and on h-TGR5 (setting [2]) was over 7.00 each time.
With `COc1cc(C(C)(C)c2cnc(SCc3c(F)cc(C(=O)O)cc3Cl)n2-c2ccc(F)cc2)ccc1Cl` [3-chloro-4-({[5-{1-[4-chloro-3-(methyloxy)phenyl]-1-methylethyl}-1-(4-fluorophenyl)-1H-imidazol-2-yl]thio}methyl)-5-fluorobenzoic acid], the pEC50 at human TGR5 (h-TGR5) (setting [1]) and on h-TGR5 (setting [2]) was over 7.00 throughout.
Consider `CC(C)(c1ccc(Cl)cc1F)c1cnc(SCc2c(F)cccc2Cl)n1-c1ccc(F)cc1` [5-[1-(4-chloro-2-fluorophenyl)-1-methylethyl]-2-{[(2-chloro-6-fluorophenyl)methyl]thio}-1-(4-fluorophenyl)-1H-imidazole], for which the pEC50 on human TGR5 (h-TGR5) (setting [1]) and on h-TGR5 (setting [2]) was 6.00 to 7.00 each time.
Turning to `COc1ccc(C(C)(C)c2cnc(SCc3ccc(F)c(C(N)=O)c3)n2-c2ccc(F)cc2)cc1OC` [5-({[5-{1-[3,4-bis(methyloxy)phenyl]-1-methylethyl}-1-(4-fluorophenyl)-1H-imidazol-2-yl]thio}methyl)-2-fluorobenzamide], the pEC50 on human TGR5 (h-TGR5) (setting [1]) and at h-TGR5 (setting [2]) was over 7.00 each time.
For `COc1cc(C(C)(C)c2c(C)nc(SCc3c(F)cccc3Cl)n2-c2ccc(F)cc2)ccc1Cl` [2-{[(2-chloro-6-fluorophenyl)methyl]thio}-5-{1-[4-chloro-3-(methyloxy)phenyl]-1-methylethyl}-1-(4-fluorophenyl)-4-methyl-1H-imidazole], the pEC50 on human TGR5 (h-TGR5) (setting [1]) and at h-TGR5 (setting [2]) was 6.00 to 7.00 throughout.
With `CC(C)(c1ccc(F)c(F)c1)c1cnc(SCc2c(F)cc(C(=O)O)cc2F)n1-c1ccc(F)cc1`, the pEC50 on human TGR5 (h-TGR5) (setting [1]) was 6.00 to 7.00; on h-TGR5 (setting [2]) it was over 7.00.
In the case of `COc1ccc(C(C)(C)c2cnc(SCc3ccc(S(=O)(=O)NC(=O)NN4CCCC4)cc3Cl)n2-c2ccc(F)cc2)cc1Cl` [3-chloro-4-({[5-{1-[3-chloro-4-(methyloxy)phenyl]-1-methylethyl}-1-(4-fluorophenyl)-1H-imidazol-2-yl]thio}methyl)-N-[(pyrrolidin-1-ylamino)carbonyl]benzenesulfonamide], the pEC50 on human TGR5 (h-TGR5) (setting [1]) and on h-TGR5 (setting [2]) was 6.00 to 7.00 in each case.
As for `CC(C)(c1ccc(Cl)c(Cl)c1)c1cnc(SCC2CCN(S(C)(=O)=O)C2)n1-c1ccc(F)cc1` (stereo not drawn) [5-[1-(3,4-dichlorophenyl)-1-methylethyl]-1-(4-fluorophenyl)-2-({[1-(methylsulfonyl)pyrrolidin-3-yl]methyl}thio)-1H-imidazole], the negative logarithm of the EC50 (pEC50) on human TGR5 (h-TGR5) (setting [1]) and on h-TGR5 (setting [2]) was 6.00 to 7.00 in each case.
Turning to `COc1cc(C(C)(C)c2cnc(SCc3c(F)ccc(S(N)(=O)=O)c3F)n2-c2ccc(F)cc2)ccc1Cl` [3-({[5-{1-[4-chloro-3-(methyloxy)phenyl]-1-methylethyl}-1-(4-fluorophenyl)-1H-imidazol-2-yl]thio}methyl)-2,4-difluorobenzenesulfonamide], the negative logarithm of the EC50 (pEC50) at human TGR5 (h-TGR5) (setting [1]) and on h-TGR5 (setting [2]) was over 7.00 throughout.
